One assay has as its system whole blood. Briefly: Tissue factor initiated whole blood assay, thrombin (TAT) at 20 minutes, historical record of treated individuals/blood. Set-up: species or system human.
Assay [1] is described as follows: INR of individuals on coumadin therapy. In kind it is in vivo, human. The procedure:
Thrombin is illustrated for the group of 13 healthy individuals (♦/⋄, column 1), with the 6-month time period for subject 10 (⋄) illustrated. […] An historical record of whole blood data for individuals on coumadin therapy (●/∘) is seen in column 3. […] Individuals with hemophilia A; or induced hemophilia B; with (Δ) and without (▴) in vitro replacement were reevaluated for their 20 minute time point and are seen in column 4. Two individuals with factor XI deficiency (▪) at low tissue factor are shown in column 5. Thrombin generation from blood treated with anti platelet IIbIIIa therapeutics (*), ReoPro and Integrellin are represented in column 6.

Setting [2] is: one individual on coumadin therapy over a 6 month time period.

This note sets out measurements from patent US7235377B2, “Global test of the hemostatic system” (The University of Vermont and State Agriculture College, priority 2003, dated 2007).

On to `CC(=O)CC(c1ccccc1)c1c(O)c2ccccc2oc1=O` (stereo not drawn) [Coumadin], for which the “TAT level, Mean” value in the assay with whole blood (mean per group, repeated measures on individuals averaged, 20 min) is 273.5. For the same molecule, the mean thrombin with whole blood (setting [2]) stood at 166.6 ± 121.3 nM. Moreover, the “variation of thrombin levels” value in the assay on whole blood (setting [2]) is listed as “approximately 325 nM”. Also, the “thrombin levels (range)” value in the assay on whole blood (one individual on coumadin therapy, stable INR, studied 10 times over 6 months, 20 min) is 9.3 to 334.7 nM. Also, the INR was 2.3±0.5 in assay [1] (group of 7 individuals stably anticoagulated on coumadin, studied once) and 2.1±0.4 in assay [1] (one individual on coumadin therapy studied 10 times over 6 months).
